“And” between values parts separate entries of the source, which are not always exact repeats. Equal entries are not always repeated. Toxic doses and inconclusive results are not listed. How the source made its calls: active means survival T/C of 150% or more; inactive means T/C below 125% in these data.
Test system: P388 leukemia ip, CD2F1 mice, survival T/C
Test: NCI In Vivo Anticancer Drug Screen. Data for tumor model P388 Leukemia (intraperitoneal) in CD2F1 (CDF1) mice
Conditions: endpoint: median survival time, higher = longer survival
Procedure, shortened: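 Mice carrying the transplanted tumor received test compound or vehicle. Survival was recorded in each group, and the value is the treated-group measurement divided by that of the vehicle-treated control group.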

[1] = dose: 50.0 mg/kg/injection, schedule: Q01DX005 (ip), vehicle: Klucel (hydroxypropylcellulose) (HPC)
[2] = dose: 100.0 mg/kg/injection, schedule: Q01DX005 (ip), vehicle: Klucel (hydroxypropylcellulose) (HPC)
[3] = dose: 200.0 mg/kg/injection, schedule: Q01DX005 (ip), vehicle: Klucel (hydroxypropylcellulose) (HPC)
[4] = dose: 12.5 mg/kg/injection, schedule: Q01DX009 (ip), vehicle: saline with Tween-80
[5] = dose: 25.0 mg/kg/injection, schedule: Q01DX009 (ip), vehicle: saline with Tween-80
[6] = dose: 50.0 mg/kg/injection, schedule: Q01DX009 (ip), vehicle: saline with Tween-80
[7] = dose: 60.0 mg/kg/injection, schedule: Q01DX005 (ip), vehicle: saline with Tween-80
[8] = dose: 120.0 mg/kg/injection, schedule: Q01DX005 (ip), vehicle: saline with Tween-80
[9] = dose: 240.0 mg/kg/injection, schedule: Q01DX005 (ip), vehicle: saline with Tween-80
[10] = dose: 60.0 mg/kg/injection, schedule: Q01DX005 (ip), vehicle: Klucel (hydroxypropylcellulose) (HPC)
[11] = dose: 120.0 mg/kg/injection, schedule: Q01DX005 (ip), vehicle: Klucel (hydroxypropylcellulose) (HPC)
[12] = dose: 240.0 mg/kg/injection, schedule: Q01DX005 (ip), vehicle: Klucel (hydroxypropylcellulose) (HPC)
[13] = dose: 50.0 mg/kg/injection, schedule: Q01DX005 (ip), vehicle: saline with Tween-80
[14] = dose: 100.0 mg/kg/injection, schedule: Q01DX005 (ip), vehicle: saline with Tween-80
[15] = dose: 200.0 mg/kg/injection, schedule: Q01DX005 (ip), vehicle: saline with Tween-80
[16] = dose: 100.0 mg/kg/injection, schedule: Q04DX003 (ip), vehicle: saline with Tween-80
[17] = dose: 200.0 mg/kg/injection, schedule: Q04DX003 (ip), vehicle: saline with Tween-80

Measured: T/C

O=c1oc(-c2nc3sc4c(c3c(=O)o2)CCCC4)nc2sc3c(c12)CCCC3
inactive: [1] 100 % of control | [2] 100 % of control | [3] 93 % of control

ClCC1CCNCC1
inactive: dose: 50.0 mg/kg/injection, schedule: Q01DX009 (ip), vehicle: saline 100 % of control | dose: 100.0 mg/kg/injection, schedule: Q01DX009 (ip), vehicle: saline 100 % of control | dose: 200.0 mg/kg/injection, schedule: Q01DX009 (ip), vehicle: saline 99 % of control

CCOC(C)c1nc2c([nH]1)c(=O)n(C)c(=O)n2C (centres undefined)
inactive: dose: 60.0 mg/kg/injection, schedule: Q01DX005 (ip), vehicle: saline 99 % of control | dose: 120.0 mg/kg/injection, schedule: Q01DX005 (ip), vehicle: saline 101 % of control | dose: 240.0 mg/kg/injection, schedule: Q01DX005 (ip), vehicle: saline 95 % of control

O=C1OC[C@@H]2C=CC[C@H]12
inactive: dose: 50.0 mg/kg/injection, schedule: Q01DX005 (ip), vehicle: saline 100 % of control | dose: 100.0 mg/kg/injection, schedule: Q01DX005 (ip), vehicle: saline 100 % of control | dose: 200.0 mg/kg/injection, schedule: Q01DX005 (ip), vehicle: saline 107 % of control

O=c1oc(-c2ccc(Cl)cc2)nc2cc(Cl)ccc12
inactive: dose: 6.25 mg/kg/injection, schedule: Q01DX009 (ip), vehicle: saline with Tween-80 96 % of control | [4] 100 % of control | [5] 100 % of control | [6] 99 % of control

CCOC(OCC)(c1ccccc1)N(C)C
inactive: [7] 92 % of control | [8] 100 % of control | [9] 104 % of control

CN(C(=S)S(C)(=O)=O)c1ccccc1
inactive: dose: 3.12 mg/kg/injection, schedule: Q01DX009 (ip), vehicle: Klucel (hydroxypropylcellulose) (HPC) 102 % of control | dose: 6.25 mg/kg/injection, schedule: Q01DX009 (ip), vehicle: Klucel (hydroxypropylcellulose) (HPC) 100 % of control | dose: 12.5 mg/kg/injection, schedule: Q01DX009 (ip), vehicle: Klucel (hydroxypropylcellulose) (HPC) 86 % of control

Cc1cc(=O)oc2nc(-c3ccccc3)[nH]c(=O)c12
inactive: [10] 86 % of control | [11] 100 % of control | [12] 91 % of control

O=C(/C(=C\c1ccccc1[N+](=O)[O-])S(=O)(=O)c1ccccc1)c1ccc([N+](=O)[O-])cc1
inactive: [13] 98 % of control | [14] 103 % of control | [15] 95 % of control

COc1ccccc1NC(=O)C1=C(C)NC(C)=C(C(=O)Nc2ccccc2OC)C1c1ccc(Cl)cc1Cl
inactive: [13] 103 % of control | [14] 103 % of control | [15] 91 % of control

COc1cc(C/C(=C\c2ccc3c(c2)OCO3)[N+](=O)[O-])ccc1OCc1ccccc1
inactive: dose: 100.0 mg/kg/injection, schedule: Q01DX001 (ip), vehicle: Klucel (hydroxypropylcellulose) (HPC) 98 % of control | dose: 200.0 mg/kg/injection, schedule: Q01DX001 (ip), vehicle: Klucel (hydroxypropylcellulose) (HPC) 96 % of control | dose: 400.0 mg/kg/injection, schedule: Q01DX001 (ip), vehicle: Klucel (hydroxypropylcellulose) (HPC) 96 % of control

CCOC(=O)c1nc(OCC)nc(OCC)c1I
inactive: dose: 12.5 mg/kg/injection, schedule: Q01DX009 (ip), vehicle: distilled water + Tween-80 112 % of control | dose: 25.0 mg/kg/injection, schedule: Q01DX009 (ip), vehicle: distilled water + Tween-80 107 % of control | dose: 50.0 mg/kg/injection, schedule: Q01DX009 (ip), vehicle: distilled water + Tween-80 96 % of control | dose: 100.0 mg/kg/injection, schedule: Q01DX009 (ip), vehicle: distilled water + Tween-80 95 % of control

CC1=CC(=C2C(=O)c3ccccc3C2=O)N(CCN2CCCCC2)C=C1
inactive: [1] 93 % of control | [2] 102 % of control | [3] 93 % of control

CCOC(=O)c1[nH]c(=O)c2cccnc2c1O
inactive: dose: 30.0 mg/kg/injection, schedule: Q01DX005 (ip), vehicle: Klucel (hydroxypropylcellulose) (HPC) 97 % of control | [10] 94 % of control and 98 % of control | [11] 106 % of control and 96 % of control | [12] 113 % of control

N=C(N)SCc1ccc(C(=O)Oc2ccc([N+](=O)[O-])cc2)cc1
inactive: [16] 100 % of control | [17] 104 % of control

CCCCNC(=O)SCCC(=O)OC
inactive: [1] 100 % of control | [2] 99 % of control | [3] 105 % of control

CC(C)=Cn1ccccc1=O
inactive: dose: 25.0 mg/kg/injection, schedule: Q01DX001 (ip), vehicle: saline 104 % of control and 108 % of control | dose: 50.0 mg/kg/injection, schedule: Q01DX001 (ip), vehicle: saline 99 % of control and 98 % of control | dose: 100.0 mg/kg/injection, schedule: Q01DX001 (ip), vehicle: saline 120 % of control and 95 % of control and 98 % of control | dose: 200.0 mg/kg/injection, schedule: Q01DX001 (ip), vehicle: saline 94 % of control | dose: 400.0 mg/kg/injection, schedule: Q01DX001 (ip), vehicle: saline 108 % of control

CCN(CC)c1ccc(/C=C/c2ccnc3ccccc23)cc1
inactive: [4] 118 % of control | dose: 12.5 mg/kg/injection, schedule: Q04DX003 (ip), vehicle: saline sonified 100 % of control | dose: 12.5 mg/kg/injection, schedule: Q04DX003 (ip), vehicle: saline with Tween-80 90 % of control | dose: 20.0 mg/kg/injection, schedule: Q04DX003 (ip), vehicle: saline 113 % of control | [5] 104 % of control | dose: 25.0 mg/kg/injection, schedule: Q04DX003 (ip), vehicle: saline sonified 104 % of control | dose: 25.0 mg/kg/injection, schedule: Q04DX003 (ip), vehicle: saline with Tween-80 100 % of control | dose: 40.0 mg/kg/injection, schedule: Q04DX003 (ip), vehicle: saline 118 % of control | dose: 50.0 mg/kg/injection, schedule: Q04DX003 (ip), vehicle: saline sonified 109 % of control | dose: 50.0 mg/kg/injection, schedule: Q04DX003 (ip), vehicle: saline with Tween-80 109 % of control

O=C(O)c1ccccc1N=N/C(=N\Nc1ccccc1C(=O)O)c1cccc2cccnc12
inactive: [16] 103 % of control | [17] 106 % of control | dose: 400.0 mg/kg/injection, schedule: Q04DX003 (ip), vehicle: saline with Tween-80 97 % of control

O=C1OC(CO)C(O)C2OC(=O)c3c(c(O)c(O)c(O)c3-c3c(O)c(O)c(O)c4c3C(=O)OC2C4O)-c2c1cc(O)c(O)c2O (centres undefined)
inactive: dose: 1.56 mg/kg/injection, schedule: Q01DX009 (ip), vehicle: saline 105 % of control | dose: 3.12 mg/kg/injection, schedule: Q01DX009 (ip), vehicle: saline 105 % of control | dose: 6.25 mg/kg/injection, schedule: Q01DX009 (ip), vehicle: saline 90 % of control

CN(C)c1ccc(/C=N/NC(=O)COc2ccccc2)cc1
inactive: dose: 15.0 mg/kg/injection, schedule: Q01DX005 (ip), vehicle: saline with Tween-80 98 % of control | dose: 30.0 mg/kg/injection, schedule: Q01DX005 (ip), vehicle: saline with Tween-80 88 % of control | [7] 88 % of control

Cc1nn2c(nnn2CCO)c1-c1ccccc1
inactive: [10] 105 % of control | [11] 91 % of control | [12] 91 % of control

COc1cc2c(c(C3C(=O)N(C)c4ccc(Br)cc43)c1OC)OCO2 (centres undefined)
inactive: [7] 95 % of control | [8] 91 % of control | [9] 98 % of control

Nc1ncc([N+](=O)[O-])c(Cl)n1
inactive: [4] 105 % of control | [5] 105 % of control | [6] 105 % of control

O=[N+]([O-])c1ccc(-c2nc(/C=N/N3CCCCC3)cs2)s1
inactive: [5] 104 % of control | [6] 106 % of control | dose: 100.0 mg/kg/injection, schedule: Q01DX009 (ip), vehicle: saline with Tween-80 109 % of control

Cc1cc(C)c2c(=O)n(-c3ccc(Br)cc3)c(=S)n(-c3ccc(Br)cc3)c2n1
inactive: dose: 12.5 mg/kg/injection, schedule: Q01DX005 (ip), vehicle: saline with Tween-80 99 % of control | dose: 25.0 mg/kg/injection, schedule: Q01DX005 (ip), vehicle: saline with Tween-80 97 % of control | [13] 87 % of control and 95 % of control

From PubChem BioAssay AID330 (DTP/NCI, 2004)
